Results: PMC10791743, “Selective CK1α degraders exert antiproliferative activity against a broad range of human cancer cell lines” (Nature Communications, 2024)
“And” between values parts separate entries of the source, which are not always exact repeats. Identical values can stand only once. “Also recorded” adds a separate entry of the source. Like-named read-outs stand apart in the source and are kept apart here.

How the values were obtained:
[1] = tested on: MOLM-13 cells overexpressing FLAG-tagged CK1α G40N mutant; assay: CK1α mutant rescue, CTG viability, FLAG-CK1α G40N MOLM-13; type: cell-based, human
Procedure: To evaluate the contribution of the CK1α degradation in SJ3149-mediated cytotoxicity, we utilized the degradation-resistant mutant CK1α G40N[41]. MOLM-13 cells were transduced with lentivirus to overexpress FLAG-tagged wild type CK1α or the G40N mutant, which removes the essential glycine in the CK1α degron G-loop.
The media was changed after cells rested in the 37 °C incubator overnight. […] As described above in the Molecular Glue Library Screening section, transduced MOLM-13 cells were seeded in 384-well plates at 1250 cells per well and allowed to rest overnight. 30 nl of CK1α degraders of interest were deposited on the cells using an Echo 650 acoustic liquid handler […]. […] This was done twice for a total of six technical replicates.

[2] = tested on: 115 human cancer cell lines; assay: Oncolines panel cell viability assay (ATPlite, 72 h); type: cell-based; details: for IC50: Homo sapiens
Source text: To evaluate the compound’s effect and potential therapeutic application across a diverse range of human cancers, we profiled SJ3149 in Oncolines® panel consisting of 115 human cancer cell lines, of which 86 were solid tumor and 29 hematologic cell lines, including MOLM-13. Effect on cell viability was monitored using ATPLite™ (Perkin Elmer), which measures intracellular ATP content as an indirect readout of cell number, like CellTiter Glo.
Cell lines were purchased from the American Type Culture Collection (ATCC) (Manassas, VA, USA) or the German Collection of Microorganisms and Cell Cultures (DSMZ) (Braunschweig, Germany). All experiments were carried out within ten passages of the original vials. Authenticity of the cell lines was confirmed by short tandem repeat analysis at the respective provider.
Cell viability assays were performed as previously described. In brief, cells were seeded in a 384-well plate at an optimized density. The starting cell number was determined after 24 h incubation by adding ATPlite 1Step (Perkin Elmer, Groningen, the Netherlands) to each well and recording luminescence on an Envision multimode reader (Perkin Elmer, Waltham, MA). After the addition of a duplicate 9-point dilution series of SJ3149, cells were incubated for another 72 h, followed by cell counting using ATPlite 1Step. The dilution series ranged from 3.2 to 31,600 nM or was diluted 100-fold for the most sensitive cell lines to ideally capture the complete dose–response curve. Percentage viability was determined at each compound concentration by relating the observed signal to a vehicle-treated control, that is, medium containing 0.4% (v/v) DMSO. Compound IC50 values were calculated by fitting a 4-parameter logistic curve to the percentage viability values using IDBS XLfit5 (IDBS, Guildford, UK). The IC50 was limited to the maximum tested compound concentration when the IC50 exceeded the maximum tested concentration.

O=C1CCC(N2Cc3cc(Nc4noc5ccccc45)ccc3C2=O)C(=O)N1 (stereo not shown) [SJ3149]
Viability response of cells expressing CK1α G40N vs wild type CK1α ([1]; CTG 72 h): no longer sensitive to SJ3149; also recorded: reduced response
cell viability percentages, CK1a G40N ([1]; Concentration 0.000542): 79.1206% and 68.9136% and 86.2719% and 90.6755% and 74.2686% and 67.4931%
cell viability percentages, CK1a G40N ([1]; Concentration 0.001625): 77.8434% and 63.4222% and 59.9052% and 65.772% and 68.5727% and 55.5817%
cell viability percentages, CK1a G40N ([1]; Concentration 0.004875): 72.8442% and 62.075% and 50.1243% and 53.1953% and 62.3344% and 69.4392%
cell viability percentages, CK1a G40N ([1]; Concentration 0.014624): 59.4413% and 49.1388% and 62.3084% and 70.556% and 54.4032% and 55.8792%
cell viability percentages, CK1a G40N ([1]; Concentration 0.043872): 47.6849% and 48.0051% and 58.611% and 66.0269% and 52.3495% and 54.2867%
cell viability percentages, CK1a G40N ([1]; Concentration 0.131617): 56.3532% and 47.9219% and 49.9326% and 67.2267% and 57.1406% and 57.2358%
cell viability percentages, CK1a G40N ([1]; Concentration 0.394851): 51.3415% and 43.4521% and 48.9175% and 55.4224% and 56.3876% and 59.8672%
cell viability percentages, CK1a G40N ([1]; Concentration 1.18455): 47.8506% and 47.8436% and 44.0498% and 54.2517% and 50.6636% and 54.2115%
cell viability percentages, CK1a G40N ([1]; Concentration 3.55366): 37.4202% and 38.8791% and 44.5898% and 50.284% and 52.251% and 51.3543%
Inhibition of viability in Oncolines panel cell lines ([2]; ATPlite, 72 h): potently inhibited the viability of AML cell lines; also recorded: potently inhibited the viability of multiple cell lines derived from solid tumors; also recorded: low nanomolar or even sub-nanomolar potency
IC50 ([2]; 769-P, cell line 769-P, Renal cell carcinoma, TP53 Wild-type, read-out: IC50): 101 nM
IC50 ([2]; A204, cell line A-204, Embryonal rhabdomyosarcoma, TP53 Wild-type, read-out: IC50): 16 nM
IC50 ([2]; A498, cell line A-498, Renal cell carcinoma, TP53 Wild-type, read-out: IC50): 5660 nM
IC50 ([2]; A549, cell line A-549, Lung adenocarcinoma, TP53 Wild-type, read-out: IC50): 38 nM
IC50 ([2]; A-375, cell line A375, Amelanotic melanoma, TP53 Wild-type, read-out: IC50): 33 nM
IC50 ([2]; ACHN, cell line ACHN, Papillary renal cell carcinoma, TP53 Wild-type, read-out: IC50): 187 nM
IC50 ([2]; AU565, cell line AU-565, Breast adenocarcinoma, TP53 Mutant, read-out: IC50): 19200 nM
IC50 ([2]; B-cell, HT, Diffuse large B-cell lymphoma, read-out: IC50): > 31600 nM
IC50 ([2]; B-cell, RL, Diffuse large B-cell lymphoma, TP53 Mutant, read-out: IC50): 27200 nM
IC50 ([2]; B-cell, cell line DB, Diffuse large B-cell lymphoma, TP53 Mutant, read-out: IC50): > 31600 nM
IC50 ([2]; BT-20, cell line BT-20, Invasive ductal carcinoma, TP53 Mutant, read-out: IC50): 30 nM
IC50 ([2]; BT-549, cell line BT-549, Invasive ductal carcinoma, TP53 Mutant, read-out: IC50): 12 nM
IC50 ([2]; CCRF-CEM, cell line CCRF-CEM, Childhood T acute lymphoblastic leukemia, TP53 Mutant, read-out: IC50): 24100 nM
IC50 ([2]; CCRF-HSB-2, CCRF-HSB-2 cells, T-ALL, read-out: IC50): 16 nM
IC50 ([2]; CCRF-HSB-2, cell line CCRF-HSB-2, Childhood T acute lymphoblastic leukemia, TP53 Wild-type, read-out: IC50): 16 nM
IC50 ([2]; CTV-1, cell line CTV-1, Adult T acute lymphoblastic leukemia, TP53 Wild-type, read-out: IC50): 212 nM
IC50 ([2]; DU-4475, cell line DU4475, Breast carcinoma, TP53 Wild-type, read-out: IC50): 16 nM
IC50 ([2]; HuTu80, HuTu 80, Duodenal adenocarcinoma, read-out: IC50): 4.6 nM
IC50 ([2]; J82, Bladder carcinoma, read-out: IC50): > 31600 nM
IC50 ([2]; JAR, Gestational choriocarcinoma, read-out: IC50): 69 nM
IC50 ([2]; JM-1, B acute lymphoblastic leukemia, read-out: IC50): 39 nM
IC50 ([2]; Jurkat E6.1, Jurkat E6.1, Childhood T acute lymphoblastic leukemia, read-out: IC50): 21200 nM
IC50 ([2]; KATO III, Signet ring cell gastric adenocarcinoma, read-out: IC50): 31400 nM
IC50 ([2]; KG-1, Adult acute myeloid leukemia, read-out: IC50): 3480 nM
IC50 ([2]; KLE, Endometrial adenocarcinoma, read-out: IC50): 28 nM
IC50 ([2]; KU812, KU812, Chronic myelogenous leukemia, read-out: IC50): 0.75 nM
IC50 ([2]; LNCaP, LNCaP FGC, Prostate carcinoma, read-out: IC50): 91 nM
IC50 ([2]; LS174T, LS 174T, Colon adenocarcinoma, read-out: IC50): 16 nM
IC50 ([2]; LoVo, Colon adenocarcinoma, read-out: IC50): 0.28 nM
IC50 ([2]; MCF7, MCF7, Invasive ductal carcinoma, read-out: IC50): 18 nM
IC50 ([2]; MOLM-13, MOLM-13, Adult acute myeloid leukemia, read-out: IC50): 4.2 nM
IC50 ([2]; MOLM-13, MOLM-13 cells, AML, read-out: IC50): 4.2 nM
IC50 ([2]; MOLT-4, MOLT-4, Adult T acute lymphoblastic leukemia, read-out: IC50): 35 nM
IC50 ([2]; NB4, Acute promyelocytic leukemia with PML-RARA, read-out: IC50): > 31600 nM
IC50 ([2]; NCCIT, Testicular embryonal carcinoma, read-out: IC50): 4.2 nM
IC50 ([2]; NOMO-1, NOMO-1, Adult acute monocytic leukemia, read-out: IC50): 53 nM
IC50 ([2]; PA-1, Ovarian mixed germ cell tumor, TP53 Wild-type, read-out: IC50): 2.8 nM
IC50 ([2]; PC-3, Prostate carcinoma, TP53 Mutant, read-out: IC50): > 31600 nM
IC50 ([2]; RD, Embryonal rhabdomyosarcoma, TP53 Mutant, read-out: IC50): 104 nM
IC50 ([2]; RKO, Colon carcinoma, TP53 Wild-type, read-out: IC50): 26800 nM
IC50 ([2]; RL95-2, RL95-2, Endometrial adenosquamous carcinoma, TP53 Mutant, read-out: IC50): 58 nM
IC50 ([2]; RPMI 8402, RPMI-8402, Childhood T acute lymphoblastic leukemia, TP53 Wild-type, read-out: IC50): 24200 nM
IC50 ([2]; RS4-11, RS4-11, Adult B acute lymphoblastic leukemia, TP53 Wild-type, read-out: IC50): 2.1 nM
IC50 ([2]; RT4, Bladder carcinoma, TP53 Wild-type, read-out: IC50): 1240 nM
IC50 ([2]; SEM, Childhood B acute lymphoblastic leukemia, TP53 Mutant, read-out: IC50): 134 nM
IC50 ([2]; SET-2, SET-2, Adult acute megakaryoblastic leukemia, TP53 Mutant, read-out: IC50): 32 nM
IC50 ([2]; SJCRH30, Alveolar rhabdomyosarcoma, TP53 Mutant, read-out: IC50): > 31600 nM
IC50 ([2]; SK-N-FI, Neuroblastoma, TP53 Mutant, read-out: IC50): 36 nM
IC50 ([2]; SR, Anaplastic large cell lymphoma, TP53 Mutant, read-out: IC50): 58 nM
IC50 ([2]; SR, SR cells, ALCL, read-out: IC50): 58 nM
IC50 ([2]; SU-DHL-1, SU-DHL-1, Anaplastic large cell lymphoma, TP53 Mutant, read-out: IC50): 12900 nM
IC50 ([2]; SU-DHL-6, SU-DHL-6, Diffuse large B-cell lymphoma, TP53 Mutant, read-out: IC50): 79 nM
IC50 ([2]; SW48, SW48, Colon adenocarcinoma, TP53 Wild-type, read-out: IC50): 19 nM
IC50 ([2]; SW900, SW900, Squamous cell lung carcinoma, TP53 Mutant, read-out: IC50): 419 nM
IC50 ([2]; SW982, SW982, Biphasic synovial sarcoma, TP53 Wild-type, read-out: IC50): 11 nM
IC50 ([2]; T24, Bladder carcinoma, TP53 Mutant, read-out: IC50): > 31600 nM
IC50 ([2]; cell line 5637, Bladder carcinoma, TP53 Mutant, read-out: IC50): 27800 nM
IC50 ([2]; cell line A388, Squamous cell carcinoma, TP53 Mutant, read-out: IC50): > 31600 nM
IC50 ([2]; cell line AP-1060, Acute promyelocytic leukemia with PML-RARA, TP53 Unknown, read-out: IC50): 1.3 nM
IC50 ([2]; cell line ES-2, Ovarian clear cell adenocarcinoma, TP53 Mutant, read-out: IC50): > 31600 nM
IC50 ([2]; cell line TT (Hereditary thyroid gland medullary carcinoma), TP53 Wild-type, read-out: IC50): 2.2 nM
IC50 ([2]; multiple cell lines from diverse tumor tissue origins, read-out: IC50 in insensitive cell lines): > 31600 nM
